In US12128131B2, “Treatment of epithelial cysts by intracystic injection of antineoplastic particles” (CRITITECH, INC., priority 2017, dated 2024):

Test: Solubility in the Receptor Fluid (60/40 methanol/water, pH 4)
Assay type: physicochemical
Conditions: 60 vol. %/40 vol % methanol/water at pH 4 with 0.01 wt % NaN3
Description: Receptor Fluid: The receptor fluid consisted of 60 vol. %/40 vol % methanol/water at pH 4 with 0.01 wt % NaN3 (added as a preservative). […] After mixing and degassing the Receptor Fluid it was filtered through a ZapCap CR 0.2 μm membrane under vacuum; the Receptor Fluid, so filtered, was stirred for an additional 20 minutes under vacuum.

solubility in the Receptor Fluid: sufficient to maintain sink conditions
Compound: CC(=O)O[C@@]12CO[C@@H]1C[C@H](O)[C@@]1(C)C(=O)[C@H](O)C3=C(C)[C@@H](OC(=O)[C@H](O)[C@@H](NC(=O)OC(C)(C)C)c4ccccc4)C[C@@](O)([C@@H](OC(=O)c4ccccc4)[C@H]21)C3(C)C [Docetaxel Raw Material, docetaxel]
